The nature of this series: Partition of pHS between 2-undecanone and aqueous medium, 10 L fermentor. The format is physicochemical. The conditions noted are these: 2-undecanone/aqueous. How it is done:
The pre-seed culture was E. coli strain WWQ51.1, as described in Example 3, frozen in glycerol. This culture was used to inoculate 500 mL of the seed medium consisting of KH2PO4 (0.15 g/L), Na2HPO4 (0.35 g/L), (NH4)2SO4 (3 g/L), MgSO4.7H2O (0.3 g/L), yeast extract (0.5 g/L), and MOPS (15.7 g/L). The medium was adjusted to pH 6.8 and steam sterilized. Then, glucose (10 g/L), kanamycin (50 mg/L) and ampicillin (100 mg/L) were aseptically added to give the final concentration given in parentheses. The seed culture was inoculated and grown in a 2 L flask incubated at 35° C. and 300 rpm for 12 h in an incubator shaker.
The fermentor medium consisted of: 6.2 L of H2O, 1.4 g KH2PO4, 3.5 g MgSO4.7H2O, 7 g (NH4)2SO4, 7 mL of Mazu DF204 Defoamer, obtained from BASF Corp. (Mt. Olive, N.J.), 7 mg thiamine, and 3 L of 2-undecanone, obtained from Bedoukian Research, Inc. (Danbury, Conn.). After sterilization of the medium, 250 g of a 50% w/v glucose solution and 140 mL of the trace element solution (as described in Example 1), were aseptically added. The pH of the medium was adjusted to 6.5. The final total volume of the fermentation medium was 10 L.
The seed culture was used to inoculate the fermentor medium in a 14 L Braun Fermentor, Biostat C. B. (Braun Biotech International, Melesungen, Germany). The fermentation conditions were as follows: temperature: 35° C., stir rate: 400–600 rpm, airflow: 2–16 SLPM, DO2: 25%, and pressure: 1 bar. Glucose was fed into the fermentor starting at a rate of 0.28 g/min. This rate was reduced when the glucose concentration rose above 2 g/L. IPTG (8 mL of a 0.5 M solution) was added when the glucose concentration fell below 4 g/L.
Samples of the aqueous and organic phases were collected at various times. The glucose, pHCA, CA, phenylalanine, tyrosine, and pHS concentrations, and the OD550 in the aqueous phase were determined, as described supra. The pHS concentration in the organic phase was measured using HPLC, as described supra.

Structures are written as SMILES.

For the compound `C=Cc1ccc(O)cc1` [pHS, para-hydroxystyrene], the Partition coeff. by setting is: (13.5 h) 19; (15.9 h) 14; (18.3 h) 19; (20.2 h) 27; (23.3 h) 33; (25.5 h) 45. The Partition coeff. (27.3 h) is reported as 40; the Partition coeff. (33.6 h) turned out to be 19; the Partition coeff. (36.8 h) was found to be 19; the Partition coeff. (39.3 h) was 21; the Partition coeff. (57.1 h) was 17; the Partition coeff. (59.4 h) was found to be 22. Also, the Partition coeff. (63.8 h) stood at 27.

The values above are taken from patent publication US7157256B2, “Method for producing para-hydroxystyrene and other multifunctional aromatic compounds using two-phase extractive fermentation” (E. I. du Pont de Nemours and Company, priority 2003, dated 2007).
